Reference: publication PMC5551549 (Endocrinology, 2017)
“Also recorded” adds a separate entry of the source.

What was measured:
[1] = system: human GCGR coexpressed with RAMP2; assay: PathHunter β-arrestin recruitment, CHO-K1-βArr-GCGR cells with RAMP2; type: cell-based; settings: 90 min, 37°C; PathHunter β-galactosidase complementation; minimum of four separate experiments; Emax P < 0.0001 with vs without RAMP2
Description: PathHunter CHO-K1 GCGR β-Arrestin GPCR assay (DiscoveRx Corporation Ltd.) was used to determine the effect of RAMP2 on the potency of GCGR ligands for recruitment of β-arrestin-1 to the GCGR. The CHO-K1-βArr-GCGR cells are engineered to detect the interaction of β-arrestin with the activated GCGR using β-galactosidase fragment complementation. CHO-K1-βArr-GCGR cells were stably transfected with or without RAMP2, as described previously. […] Fifty-five microliters of the PathHunter detection reagents was added to each well, and the microplate was incubated at room temperature for 60 minutes.

[2] = system: CHO-K1-GCGR cells; assay: Ca^2+ response to ATP (control), CHO-K1-GCGR cells; type: cell-based, Chinese hamster; settings: mean ± SEM; P = 0.77 vs RAMP2-expressing cells
Description: (§1) Cells, plated overnight onto 96-well plates at 50,000 cells/well, were incubated in 75 µL Ca NW^PLUS working reagent for 1 hour at 37°C. […] Fluorescence signal was measured from 5 seconds before to 30 seconds after injection of agonist. The Ca^2+ response was expressed as a percentage of the adenosine triphosphate response (1 µM).

[3] = system: CHO-K1-GCGR cells + RAMP2; assay: Ca^2+ response to ATP (control), RAMP2-expressing CHO-K1-GCGR cells; type: cell-based, Chinese hamster; settings: mean ± SEM; P = 0.77 vs control cells
Description: as §1

[4] = system: CHO-K1-GCGR cells; assay: cAMP response to forskolin (control), CHO-K1-GCGR cells; type: cell-based, Chinese hamster; settings: mean ± SEM; P = 0.20 vs RAMP2-expressing cells
Description: (§2) CHO-K1 cells overexpressing the human GCGR (with or without RAMP2), plated onto 48-well plates at 40,000 cells/well, were incubated in serum-free media for 1 hour. Peptides were prepared in serum-free DMEM containing 100 µM of IBMX (3-isobutyl-1-methylxanthine; Sigma-Aldrich, United Kingdom). The cells were incubated for 30 minutes with the test peptide, after which media were replaced with 110 µL lysis buffer (0.1M HCl with 0.5% Triton-X). The lysate was assayed by using a direct cyclic adenosine monophosphate ELISA kit (Enzo Life Sciences, United Kingdom), as described in the assay manual. The cyclic adenosine monophosphate (cAMP) response was corrected for well protein levels (Bradford reagent; Sigma-Aldrich) and expressed as a percentage of response to 10 µM forskolin.

[5] = system: CHO-K1-GCGR cells + RAMP2; assay: cAMP response to forskolin (control), RAMP2-expressing CHO-K1-GCGR cells; type: cell-based, Chinese hamster; settings: mean ± SEM; P = 0.20 vs control cells
Description: as §2

CC[C@H](C)[C@H](NC(=O)[C@H](Cc1ccccc1)NC(=O)[C@H](CCC(=O)O)NC(=O)[C@H](CCCCN)NC(=O)[C@H](C)NC(=O)[C@H](C)NC(=O)[C@H](CCC(N)=O)NC(=O)CNC(=O)[C@H](CCC(=O)O)NC(=O)[C@H](CC(C)C)NC(=O)[C@H](Cc1ccc(O)cc1)NC(=O)[C@H](CO)NC(=O)[C@H](CO)NC(=O)[C@@H](NC(=O)[C@H](CC(=O)O)NC(=O)[C@H](CO)NC(=O)[C@@H](NC(=O)[C@H](Cc1ccccc1)NC(=O)[C@@H](NC(=O)CNC(=O)[C@H](CCC(=O)O)NC(=O)[C@H](C)NC(=O)[C@@H](N)Cc1c[nH]cn1)[C@@H](C)O)[C@@H](C)O)C(C)C)C(=O)N[C@@H](C)C(=O)N[C@@H](Cc1c[nH]c2ccccc12)C(=O)N[C@@H](CC(C)C)C(=O)N[C@H](C(=O)N[C@@H](CCCCN)C(=O)NCC(=O)N[C@@H](CCCNC(=N)N)C(N)=O)C(C)C [GLP-1]
β-arrestin recruitment in cells expressing both GCGR and RAMP2 [1]: did not occur; also recorded: completely abolished

Nc1ncnc2c1ncn2[C@@H]1O[C@H](COP(=O)(O)OP(=O)(O)OP(=O)(O)O)[C@@H](O)[C@H]1O [ATP, adenosine triphosphate]
Ca^2+ response to ATP, control cells [2]: 1.81 ± 0.08 relative fluorescence unit fold increase from baseline
Ca^2+ response to ATP, RAMP2-expressing cells [3]: 1.84 ± 0.10 relative fluorescence unit fold increase from baseline

C=C[C@@]1(C)CC(=O)[C@]2(O)[C@@]3(C)[C@@H](O)CCC(C)(C)[C@@H]3[C@H](O)[C@H](OC(C)=O)[C@@]2(C)O1 [forskolin]
cAMP response to forskolin, control cells [4]: 0.136 ± 0.01 relative absorbance units
cAMP response to forskolin, RAMP2-expressing cells [5]: 0.140 ± 0.01 relative absorbance units
